These results are taken from patent US4220577A, “Iodopropargyl pyridyl and picolinyl ethers and thioethers as paint fungicides” (Givaudan Corporation, priority 1979, dated 1980).

Format in all cases: cell-based
The test system of assay [1] is Aureobasidium pullulans (strain 1). The experiment in a line: Antifungal activity on painted surfaces, strain 1. Set-up: key to Surface Growth: 0: No growth; 1: Slight growth; 2: Moderate growth; 3: Heavy growth. Conditions: Strain 1, three weeks. The procedure:
(§1) Any antifungal agent which can be used to prevent mildew on painted surfaces must be effective against Aureobasidium pullulans, the organism which is primarily responsible for mildew on painted surfaces. The effectiveness of the novel compounds was tested by incorporating the compound into an exterior latex paint, applying the paint to a surface, and testing the ability of the painted surface to prevent the growth of Aureobasidium pullulans. The tests were run as described below. The novel compounds were incorporated into an exterior vinyl acetate latex paint by mulling the compound into the paint. The compounds were tested in the paints at levels of 0.25% and 0.5%. One coat of this paint was applied to each side of a piece of Whatman #30 filter paper. Two one-inch squares were cut from the filter paper. Each square was centered on the agar surface of separate Petri dishes containing malt agar. One square was inoculated with a suspension of Aureobasidium pullulans (strain 1) which was an in-house strain used for routine antimicrobial testing. The second square was inoculated with a suspension of Aureobasidium pullulans (strain 2) which was grown from a culture obtained from the surface of a mildew infested panel. Squares painted with the same exterior vinyl acetate latex paint, but without the novel compounds of this invention, were run in parallel. The Petri dishes were then incubated at 27° C. and at greater than 90% humidity for a three week period and observed for zones of inhibition and surface growth.

Assay [2] concerns Aureobasidium pullulans (strain 2). Put plainly: Antifungal activity on painted surfaces, strain 2. The arrangement: key to Surface Growth: 0: No growth; 1: Slight growth; 2: Moderate growth; 3: Heavy growth; key to Zone of Inhibition: 0: no zone; 1-5 mm; 2: 6-10 mm; 3: 11-15 mm; 4: 16-20 mm; 5: >20 mm. The settings on record: Strain 2, three weeks. The procedure: as §1
The test system is the same in assay [3]. The experiment in a line: Antifungal activity of painted birch blades after exposure to heat and light. Conditions: after light (300-400 nm) and heat (40° C.) four weeks. Set-up: key to Surface Growth: 0: No growth; 1: Slight growth; 2: Moderate growth; 3: Heavy growth. The procedure:
Successful paint fungicides must be stable when exposed to the elements such as heat and light. Such stability was tested in the laboratory by exposing painted sticks to heat and light. The compounds of this invention were incorporated into an exterior vinyl acetate latex paint as described in Example XXI. Birch blades (tongue depressors) were painted (two coats) and continuously exposed to light (wavelength 300-400 nm) and heat (40° C.) for four consecutive weeks. At the end of the exposure time, one-inch squares of the painted birch blades were cut and tested according to the procedure of Example XXI, using strain 2.

The mark [4] stands for this setting: 0.25% in vinyl acetate latex paint.
Where [5] appears, read: 0.5% in vinyl acetate latex paint.

For `IC#CCOc1cccnc1` [drawing 11], the “Surface Growth” value in assay [1] (setting [4]) and in assay [1] (setting [5]) was 0 throughout. Further, the “Zone of Inhibition” value in assay [1] (setting [4]) and in assay [1] (setting [5]) was 3 (11-15 mm) in each case.
With `Cc1ccc(OCC#CI)cn1` [drawing 12], the “Surface Growth” value in assay [1] (setting [4]), in assay [1] (setting [5]), in assay [2] (setting [4]) and in assay [2] (setting [5]) was 0 throughout. Further, the “Zone of Inhibition” value in assay [1] (setting [4]) is recorded as 2 (6-10 mm); in assay [1] (setting [5]) it was 2 (6-10 mm); in assay [2] (setting [4]), 1 (1-5 mm); in assay [2] (setting [5]), 2 (6-10 mm).
With `Clc1ncccc1OCC#CI` [drawing 13], the “Surface Growth” value in assay [1] (setting [4]), in assay [1] (setting [5]), in assay [2] (setting [4]) and in assay [2] (setting [5]) was 0 each time. Also, the “Zone of Inhibition” value is listed as 2 (6-10 mm) in assay [1] (setting [4]), 3 (11-15 mm) in assay [1] (setting [5]), 1 (1-5 mm) in assay [2] (setting [4]) and 2 (6-10 mm) in assay [2] (setting [5]).
With `Nc1ncccc1OCC#CI` [drawing 14], the “Surface Growth” value in assay [1] (setting [4]), in assay [1] (setting [5]), in assay [2] (setting [4]) and in assay [2] (setting [5]) was 0 in each case. The results for the “Zone of Inhibition” value in assay [1] (setting [5]), in assay [2] (setting [4]) and in assay [2] (setting [5]) were 2 (6-10 mm), 0 and 0, respectively.
With `IC#CCSc1cccnc1` [drawing 15], the “Surface Growth” value in assay [1] (setting [4]), in assay [1] (setting [5]), in assay [2] (setting [4]) and in assay [2] (setting [5]) was 0 each time. The “Zone of Inhibition” value in assay [1] (setting [4]) is recorded as 2 (6-10 mm); in assay [1] (setting [5]), 3 (11-15 mm); in assay [2] (setting [4]) it was 0; in assay [2] (setting [5]) it was 2 (6-10 mm).
In the case of `IC#CCOCc1cccnc1` [drawing 16], the “Surface Growth” value in assay [1] (setting [4]), in assay [1] (setting [5]), in assay [2] (setting [4]) and in assay [2] (setting [5]) was 0 throughout. The “Zone of Inhibition” value is on record as 4 (16-20 mm) in assay [1] (setting [4]), 5 (>20 mm) in assay [1] (setting [5]), 3 (11-15 mm) in assay [2] (setting [4]) and 4 (16-20 mm) in assay [2] (setting [5]).
For `IC#CCOc1ccncc1` [drawing 17], the “Surface Growth” value in assay [1] (setting [5]) and in assay [2] (setting [5]) was 0 each time. The results for the “Zone of Inhibition” value in assay [1] (setting [5]) and in assay [2] (setting [5]) were 2 (6-10 mm) and 1 (1-5 mm), respectively.
For the compound `IC#CCSc1ccncc1` [drawing 18], the “Surface Growth” value in assay [1] (setting [4]), in assay [1] (setting [5]), in assay [2] (setting [4]) and in assay [2] (setting [5]) was 0 throughout. Besides, the “Zone of Inhibition” value is on record as 1 (1-5 mm) in assay [1] (setting [5]), 0 in assay [2] (setting [4]) and 0 in assay [2] (setting [5]).
For the compound `IC#CCOc1cccnc1` [drawing 19], the “Surface Growth” value in assay [3] (0.25%) and in assay [3] (0.5%) was 0 throughout. Also, in assay [3] (0.5%), the “Zone of Inhibition” value is reported as 1 (1-5 mm).
For `Cc1ccc(OCC#CI)cn1` [drawing 20], the “Surface Growth” value in assay [3] (0.25%) is reported as 0.
Take `Clc1ncccc1OCC#CI` [drawing 21]: the “Surface Growth” value in assay [3] (0.25%) stood at 0.
Take `Cc1ccc(OCC#CI)c(Cl)n1` [drawing 22]: the “Surface Growth” value in assay [3] (0.5%) worked out at 0.
With `Nc1ncccc1OCC#CI` [drawing 23], the figures for the “Surface Growth” value in assay [3] (0.25%) and in assay [3] (0.5%) were 1 and 0, respectively.
On the same counts, the results for `IC#CCSc1cccnc1` [drawing 24] are 3 and 2.
Take `IC#CCOCc1cccnc1` [drawing 25]: the “Surface Growth” value in assay [3] (0.25%) and in assay [3] (0.5%) was 0 throughout. The “Zone of Inhibition” value in assay [3] (0.5%) is on record as 1 (1-5 mm).
For the compound `IC#CCOc1ccncc1` [drawing 26], the “Surface Growth” value in assay [3] (0.25%) and in assay [3] (0.5%) was 2 throughout.
Regarding `IC#CCOc1ccccc1` [reference compound], the entries for the “Surface Growth” value in assay [3] (0.25%) and in assay [3] (0.5%) were 3 and 2, respectively.
